Measurements reported in patent publication US7875452B2, “Non-desensitizing mutant of the transient receptor potential TRPM5 ion channel” (Redpoint Bio Corporation, priority 2007, dated 2011).

Tests used:
Format in all cases: cell-based
[1] = molecular target: T1, non-desensitizing (His)6-hTRPM5 ion channel (Homo sapiens, UniProt Q9NZQ8); assay: FMP dye membrane potential assay in cells transfected with non-desensitizing (His)6-hTRPM5; conditions: 10 μM ATP, HEK 293 cells transiently transfected with (His)6-hTRPM5, FIG. 3
T1 construct: expressed in transfected cells; host or cells: HEK 293 cells (ATCC), transient transfection with pcDNA-DEST-26-(His)6-hTRPM5
T1 sequence (Q9NZQ8 with tags, fused parts or gaps): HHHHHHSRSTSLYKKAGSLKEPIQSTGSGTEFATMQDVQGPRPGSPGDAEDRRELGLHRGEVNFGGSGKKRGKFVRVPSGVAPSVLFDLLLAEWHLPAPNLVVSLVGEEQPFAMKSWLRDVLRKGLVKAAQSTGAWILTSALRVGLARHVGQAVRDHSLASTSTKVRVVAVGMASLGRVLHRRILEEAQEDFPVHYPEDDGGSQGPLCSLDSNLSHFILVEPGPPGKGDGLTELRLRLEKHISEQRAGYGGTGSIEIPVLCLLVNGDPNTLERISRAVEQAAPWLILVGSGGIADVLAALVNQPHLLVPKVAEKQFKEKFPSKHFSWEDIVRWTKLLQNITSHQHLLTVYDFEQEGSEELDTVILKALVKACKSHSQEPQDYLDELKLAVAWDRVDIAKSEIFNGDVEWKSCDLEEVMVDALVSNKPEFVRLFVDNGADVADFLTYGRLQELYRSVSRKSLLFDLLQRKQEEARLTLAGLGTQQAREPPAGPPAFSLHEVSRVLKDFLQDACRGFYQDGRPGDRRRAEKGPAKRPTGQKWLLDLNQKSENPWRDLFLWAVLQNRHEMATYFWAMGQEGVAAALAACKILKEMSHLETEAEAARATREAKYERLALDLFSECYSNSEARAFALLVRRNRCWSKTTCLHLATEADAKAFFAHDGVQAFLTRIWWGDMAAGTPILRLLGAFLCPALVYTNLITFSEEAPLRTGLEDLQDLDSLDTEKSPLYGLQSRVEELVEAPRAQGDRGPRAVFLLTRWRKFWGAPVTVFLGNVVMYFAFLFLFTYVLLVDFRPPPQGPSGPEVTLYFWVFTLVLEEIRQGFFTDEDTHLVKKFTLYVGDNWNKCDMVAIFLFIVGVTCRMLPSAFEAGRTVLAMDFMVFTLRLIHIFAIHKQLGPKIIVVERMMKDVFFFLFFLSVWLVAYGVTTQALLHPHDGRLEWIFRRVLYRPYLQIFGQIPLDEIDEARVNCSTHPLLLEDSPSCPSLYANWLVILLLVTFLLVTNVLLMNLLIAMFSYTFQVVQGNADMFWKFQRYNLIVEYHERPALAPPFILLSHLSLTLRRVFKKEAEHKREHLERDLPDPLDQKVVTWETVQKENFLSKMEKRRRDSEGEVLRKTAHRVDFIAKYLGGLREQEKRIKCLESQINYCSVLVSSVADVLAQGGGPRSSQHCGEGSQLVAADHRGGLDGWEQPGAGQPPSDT
Procedure: (§1) 5.0×10^6 HEK 293 cells (ATCC) were plated in a 10 cm culture dish at 37° C. in a CO2 incubator in Dulbecco's Modified Eagle's Medium (DMEM) supplemented with 10% Fetal Bovine Serum (FBS) and Penicillin-Streptomycin Solution. The following day, medium in the culture dish was exchanged with 15 mL of DMEM/10% FBS over a period of 3 hours. Prior to cell transfection, 24 μg of pcDNA-DEST-26-(His)6-hTRPM5 was incubated in a 5 mL polypropylene tube for 5 minutes at room temperature in 1.5 mL of OPTI-MEM media (Invitrogen). In a separate 5 mL polypropylene tube, 42 μL of Lipofectamine™ 2000 (Invitrogen) was incubated for 5 minutes at room temperature in 1.5 mL of OPTI-MEM media. […] Plates were then assayed on a FLIPR Tetra reader as described.
(§2) 100 μl of the Blue or Red FMP dye (Molecular Devices) was added to each well of plates seeded with HEK cells transiently transfected with pDEST-26™-(His)6-hTRPM 5. […] The plate was read in a FLEXStation™ microplate reader (Molecular Devices) with an excitation of 530 nm and an emission of 565 nm. The fluorescence was monitored for 3 minutes upon exposure of the cells to a calcium activating agent (carbachol, thrombin peptide or ATP). […]
Cells transfected with non-desensitizing (His)6-hTRPM5 DNA were loaded with FMP dye and then treated with 10 μM ATP and monitored for an increase in cellular fluorescence in the FLEXstation™. […]

wildtype hTRPM5 = molecular target: T2, wildtype hTRPM5 (Homo sapiens, UniProt Q9NZQ8); assay: FMP dye membrane potential assay in cells transfected with wildtype hTRPM5; conditions: 10 μM ATP, cells transfected with wildtype hTRPM5, FIG. 3
T2 construct: the full length hTRPM5 was amplified by PCR using GC Melt; expressed in transfected cells; host or cells: HEK 293 cells
T2 sequence (Q9NZQ8 1-1165): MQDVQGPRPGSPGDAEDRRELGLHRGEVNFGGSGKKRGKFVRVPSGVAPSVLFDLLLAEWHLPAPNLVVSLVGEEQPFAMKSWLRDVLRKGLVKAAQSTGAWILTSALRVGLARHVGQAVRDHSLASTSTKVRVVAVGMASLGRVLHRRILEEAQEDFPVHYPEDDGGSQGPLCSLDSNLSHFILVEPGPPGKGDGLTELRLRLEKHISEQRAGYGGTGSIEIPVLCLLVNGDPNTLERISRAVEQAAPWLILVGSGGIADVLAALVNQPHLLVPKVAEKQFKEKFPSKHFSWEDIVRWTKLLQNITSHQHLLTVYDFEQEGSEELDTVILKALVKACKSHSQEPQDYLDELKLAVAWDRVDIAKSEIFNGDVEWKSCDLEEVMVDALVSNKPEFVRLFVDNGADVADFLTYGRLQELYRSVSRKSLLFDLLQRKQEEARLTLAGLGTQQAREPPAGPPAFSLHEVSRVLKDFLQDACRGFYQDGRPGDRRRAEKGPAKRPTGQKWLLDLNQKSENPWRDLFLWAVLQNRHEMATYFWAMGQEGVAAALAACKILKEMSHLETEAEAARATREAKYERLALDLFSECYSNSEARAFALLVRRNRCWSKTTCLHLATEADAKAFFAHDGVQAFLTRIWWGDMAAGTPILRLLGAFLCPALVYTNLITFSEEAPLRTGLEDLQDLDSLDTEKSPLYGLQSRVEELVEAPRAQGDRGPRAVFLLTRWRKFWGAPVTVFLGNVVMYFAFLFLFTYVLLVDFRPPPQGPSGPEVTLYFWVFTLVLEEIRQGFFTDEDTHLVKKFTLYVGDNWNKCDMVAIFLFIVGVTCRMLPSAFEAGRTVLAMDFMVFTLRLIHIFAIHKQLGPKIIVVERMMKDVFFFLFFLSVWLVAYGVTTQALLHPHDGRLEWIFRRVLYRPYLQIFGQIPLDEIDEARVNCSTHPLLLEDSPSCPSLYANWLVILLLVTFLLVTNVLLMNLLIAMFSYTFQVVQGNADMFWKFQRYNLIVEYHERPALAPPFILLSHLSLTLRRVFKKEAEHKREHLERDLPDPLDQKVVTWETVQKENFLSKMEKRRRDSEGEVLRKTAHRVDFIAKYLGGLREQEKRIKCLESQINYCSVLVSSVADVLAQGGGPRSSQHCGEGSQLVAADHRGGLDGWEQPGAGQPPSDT
Procedure: as §1, with “media. After the 5 minute incubation period, the pcDNA-DEST-26-(His)6-hTRPM5 and Lipofectamine™ 2000 solutions were mixed together and incubated for an additional 20 minutes at room temperature.” for “media.”
as §2

[2] = system: cells transfected with PSV3 Neo; assay: FMP dye membrane potential assay in sham cells transfected with PSV3 Neo empty vector; conditions: 10 μM ATP, sham control, FIG. 3
Procedure: 100 μl of the Blue or Red FMP dye (Molecular Devices) was added to each well of plates seeded with HEK cells transiently transfected with pDEST-26™-(His)6-hTRPM 5. The plate was then incubated in a 37° C. /5% CO2 incubator for 1 hour. The plate was read in a FLEXStation™ microplate reader (Molecular Devices) with an excitation of 530 nm and an emission of 565 nm. The fluorescence was monitored for 3 minutes upon exposure of the cells to a calcium activating agent (carbachol, thrombin peptide or ATP).
Cells transfected with either wildtype hTRPM5 DNA, non-desensitizing (His)6-hTRPM5 DNA or PSV3 Neo were loaded with FMP dye and then treated with 10 μM ATP and monitored for an increase in cellular fluorescence in the FLEXstation™.

**Q.** For `Nc1ncnc2c1ncn2[C@@H]1O[C@H](COP(=O)(O)OP(=O)(O)OP(=O)(O)O)[C@@H](O)[C@H]1O` [ATP, adenosine triphosphate], which “time for which fluorescence is observed at significant levels after activation” value [1] is on record?
**A.** more than 3 minutes

**Q.** What about the “duration of increase in fluorescence (initial activation) before rapid inactivation” value (wildtype hTRPM5) of the same compound?
**A.** about 30 seconds

**Q.** What about the “membrane potential response (cellular fluorescence) to application” value [2] of the same compound?
**A.** no significant response
